{"source": "patent US20140243281A1", "about": "“BILE ACID RECYCLING INHIBITORS FOR TREATMENT OF PEDIATRIC CHOLESTATIC LIVER DISEASES” (Lumena Pharmaceuticals, Inc., priority 2011, published 2014)", "key": {"Male ZDF rats": {"test_system": "Male ZDF rats", "assay": "Plasma bile acid levels of ZDF rats after ascending doses of SC-435 and LUM002", "format": "in vivo, rat", "details": "ZDF rats n=4; all doses (SC-435 1, 10, 30 mg/kg; LUM002 0.3, 1, 3, 10, 30 mg/kg) oral gavage twice a day, 2 weeks", "experimental": "FIG. 2. Plasma bile acid levels of ZDF rats after administration of ascending doses of SC-435 and LUM002. Male ZDF rats (n=4) were administered vehicle, SC-435 (1, 10 or 30 mg/kg) or LUM002 (0.3, 1, 3, 10 or 30 mg/kg) by oral gavage twice a day for 2 weeks. Plasma bile acid levels were determined at the end of the second week. Data are expressed as mean values±SEM.\nMale ZDF rats (n=4) were administered vehicle, SC-435 (1, 10 or 30 mg/kg) or LUM002 (0.3, 1, 3, 10 or 30 mg/kg) by oral gavage twice a day for 2 weeks. Plasma bile acid levels were determined at the end of the second week. […] Data are expressed as mean values±SEM."}, "Male beagle dogs [1]": {"test_system": "Male beagle dogs", "assay": "Duration of action on dog serum bile acids, Method 1: two meals for extended SBA elevation", "format": "in vivo", "details": "for Serum Bile Acid, Mean: full meal at 0 hr, dosed at 1 hr, half meal at 4 hr", "experimental": "(§1) Test compound: LUM001-Form I\n(§2) LUM001 was dissolved in water at concentrations that required the administration of 0.2 ml/kg of solution. Solutions were placed into gelatin capsules, Torpac Inc., size 13 Batch 594, East Hanover N.J., and administered orally.\n(§3) Male beagle dogs were obtained from Covance Research Products, Cumberland Va. or Marshall Farms USA, Inc., North Rose N.Y. A total of 20 dogs, 1 to 5 years old, 6.8 to 15.6 kg body weight, were used in these experiments. The dogs were conditioned to a 12 hour light/dark cycle and maintained on a feeding restriction of 1 hour per day access to food (Richman Standard Certified Canine Diet #5007, PMI Nutrition, Inc., St Louis Mo.) from 7 to 8 AM. They were trained to eat a special meal promptly within 20 minutes when presented (1 can. 397 g, Evanger's 100% Beef for Dogs, Evanger's Dog and Cat Food Co., Inc., Wheeling Ill., mixed with 50 g of sharp cheddar cheese.).\n(§4) SBA was measured by an enzymatic assay. SBA values are expressed as μg of total bile acids/ml of serum.\nTo estimate the details of this plateau, 6 dogs were given a test meal and blood samples for SBA measurement were collected at −30, 0, 30, 60, 65, 70, 80, 90, 120, 180, 240, 360, 480, 720, 1410 and 1440 minutes from the time of feeding. Any remaining food was removed 20 min after it was first presented to the dogs. To establish a method for extending the elevated plateau of SBA, 6 dogs were given the meal at 0 hr and an additional ½ size meal again 4 hr after their first meal. Blood samples were taken at 0, 1, 2, 3, 4, 4.5, 6, 7 and 8 hr. The curves for SBA level vs time obtained in these experiments were used as references for determining blood sampling times in experiments with LUM001. Wherever possible, experimental design permitting, in experiments with test compound, each dog served as its own simultaneous control, and the mean 1 hr SBA value served as the reference to which all other mean values were compared.\nIn dogs a single experimental meal produces a postprandial rise in SBA that is elevated to a peak at 1 hour after feeding and constant for an additional 3 hours. Previous experiments (2) indicate that LUM001 remains active for more than 4.5 hours. To measure the duration of action of an ASBT inhibitor using postprandial SBA levels requires that in the control situation the SBA levels remain elevated and constant for the entire period of compound action, or that the compound be administered long before the postprandial rise occurs, and remain active in the empty digestive system for long periods before feeding. Accordingly, two alternative methods were used to provide a window of constant SBA elevation that could be used to measure the duration of action of ASBT inhibitors.\n[…] At 4 hours after the meal was offered, a second meal of ½ the size of the first meal was offered. It too was consumed as promptly and thoroughly as the first meal, and provided an extended, constant SBA plateau. Blood samples for SBA measurement were taken at 0, 1, 1.5, 2, 4, 4.5, 5, 5.5, 6, 6.5, 7, 7.5 and 8 hours from the time of offering the first meal. Mean SBA levels were compared to the mean SBA level at 1 hour, each dog serving as its own control.\nAll animals were fed a full meal at 0 hour, dosed orally with the compound at 1 hour and then fed an additional one-half meal at 4 hours. *=p<0.05 compared to the mean value in the same curve at 1 hour by two-tailed paired two-sample t-test."}, "healthy, adult subjects": {"test_system": "healthy, adult subjects", "assay": "Phase 1 ascending multiple oral doses in healthy subjects: serum and fecal bile acid analysis", "format": "in vivo, human", "details": "28 days", "experimental": "This Phase 1 study was a randomized, double-blind, placebo-controlled study of ascending multiple oral doses of LUM001 in healthy, adult subjects. This study was conducted at a single center. There were 13 LUM001 dosing panels: 10, 20, 60, 100, and 20 mg every morning (qAM) (2) (i.e., the regimen was tested a second time in the study), 5 mg every evening (qPM), 0.5, 1, 2.5, 5, 2.5 (2), 5 (2), and 0.5 to 5 mg qAM dose titration. Most of the dosing panels included subjects treated with matching placebo. Shown in the graphs are data from the 0.5 (n=16), 1.0 (n=8), 2.5 (n=8), 5.0 (n=8) and 10 (n=8) mg dosing groups. […]\nSBA were analyzed as part of the routine clinical analysis of the serum samples collected at each time point.\nFecal samples were collected for all panels except the dose-titration panel, 2.5 (2) and 5 mg (2), on Days 9 through 14 and 23 through 28 (data shown in FIG. 4). Twenty-four hour FBA excretions were quantified by Pharmacia for Days 9 through 14 and 23 through 28. […] The weight of each 24-hour fecal collection was recorded on the CRFs. […]\nAn aliquot for each 24-hour fecal sample collected on Days 23 through 28 was combined, homogenized, and analyzed for bile acid species concentrations by ANAPHARM. The fecal bile acid species evaluated include chenodeoxycholic acid, cholic acid, deoxycholic acid, and lithocholic acid."}, "Male beagle dogs [2]": {"test_system": "Male beagle dogs", "assay": "Time to onset of activity on postprandial serum total bile acids in beagle dogs", "format": "in vivo", "details": "dog", "experimental": "as §1, §2, §3, §4\nTo estimate the details of this plateau, 6 dogs were given a test meal and blood samples for SBA measurement were collected at −30, 0, 30, 60, 65, 70, 80, 90, 120, 180, 240, 360, 480, 720, 1410 and 1440 minutes from the time of feeding. Any remaining food was removed 20 min after it was first presented to the dogs. […]"}, "[3]": {"test_system": "children and adolescents under the age of eighteen", "assay": "Fasting serum bile acid and morning post-prandial peak in pediatric subjects", "format": "in vivo, human", "details": "QD in the morning", "experimental": "(§5) LUM001 has been administered to forty patients under the age of 18 years old. […] The drug was administered once-a-day (QD) in the morning for fourteen days. […] These doses are similar to those using to treat children with cholestatic diseases.\nThe efficacy of LUM001 was determined by measuring total serum bile acids after eight days of dosing in children and adolescents under the age of eighteen. Thirty minutes before the next drug administration, at approximately 8 am in the morning, serum bile acid levels were measured. The child had refrained from food for 12 hours prior to this sample thus providing a fasted level of serum bile acid. After breakfast, serum bile acids were measured for up to the next 4 hours (8 am to noon) and the peak serum bile acid concentration noted."}, "[4]": {"assay": "Pharmacokinetics (systemic exposure) of LUM001 in pediatric subjects", "format": "in vivo, human", "details": "for concentration at 8 day: human, serum, read-out: Average serum drug exposure", "experimental": "as §5"}, "[5]": {"test_system": "treated subjects aged 10-17", "assay": "Pediatric multiple-dose study, tolerability", "format": "in vivo, human", "details": "2 weeks daily up to 5 mg q.d.; 39 treated subjects aged 10-17", "description": "(39 treated subjects aged 10-17)."}, "[6]": {"test_system": "Male Zucker diabetic fatty rats (ZDF/GmiCrl-fa/fa)", "assay": "Fecal bile acid excretion and plasma bile acid concentrations in ZDF rats given 264W94", "format": "in vivo, rat", "details": "2 weeks", "experimental": "Male Zucker diabetic fatty rats (ZDF/GmiCrl-fa/fa) were purchased from Charles River (Raleigh, N.C.) and housed under controlled conditions (12:12 light-dark cycle, 24° C. and 50% relative humidity) with free access to rodent food (Purina 5008, Harlan Teklad, Indianapolis, Ind.). All rats arrived at seven weeks of age (±3 days). After a one-week acclimation period, rats were anesthetized with isoflurane (Abbott Laboratories, IL) and tail-vein blood samples were collected at 9 am without fasting. Blood glucose levels were measured using a glucometer (Bayer, Leverkusen, Germany). In order to ensure balanced treatment groups, ZDF rats were assigned to six treatment groups based upon baseline glucose: vehicle (0.5% HPMC, 0.1% Tween80) and five doses of 264W94 (0.001, 0.01, 0.1, 1, 10 mg/kg). All treatments were given via oral gavage twice a day and animals were followed for two weeks with blood samples collected from tail vein at the end of each week at 9 am without fasting. Fecal samples were collected for 24 hours during the second week of treatment.\nNon-esterified fatty acids (NEFA), bile acids, and bile acids in fecal extraction were measured using the Olympus AU640 clinical chemistry analyzer (Beckman Coulter, Irving, Tex.)."}}, "note": "Where two headings read alike, the source gives them in different places. Marks after values point to notes of the source that are not given here."}
{"compound": "CCCC[C@]1(CC)CS(=O)(=O)c2ccc(N(C)C)cc2[C@@H](c2cccc(NC(=O)N[C@@H]3O[C@H](COS(=O)(=O)[O-])[C@@H](O)[C@H](OCc4ccccc4)[C@H]3O)c2)[C@H]1O.[K+]", "note": "[LUM002]", "values": [{"measurement": "Plasma bile acid levels", "setting": "Male ZDF rats", "result": "decreased"}]}
{"compound": "CCCCC1(CCCC)CS(=O)(=O)c2ccc(N(C)C)cc2[C@@H](c2ccc(OCCCC[N+]34CCN(CC3)CC4)cc2)[C@H]1O.CS(=O)(=O)[O-]", "note": "[SC-435, 1-[4-[4-[(4R,5R)-3,3-dibutyl-7-(dimethylamino)-2,3,4,5-tetrahydro-4-hydroxy-1,1-dioxido-1-benzothiepin-5-yl]phenoxy]butyl]-4-aza-1-azoniabicyclo[2.2.2]octane methanesulfonate salt, reference compound]", "values": [{"measurement": "Plasma bile acid levels", "setting": "Male ZDF rats", "result": "decreased"}]}
{"compound": "CCCCC1(CCCC)CS(=O)(=O)c2ccc(N(C)C)cc2[C@@H](c2ccc(OCc3ccc(C[N+]45CCN(CC4)CC5)cc3)cc2)[C@H]1O", "note": "[LUM001]", "values": [{"measurement": "Serum Bile Acid, Mean", "setting": "Male beagle dogs [1]; 0 hr", "result": 1.4, "unit": "µg/mL"}, {"measurement": "Serum Bile Acid, Mean", "setting": "Male beagle dogs [1]; 1 hr", "result": 9.2, "unit": "µg/mL"}, {"measurement": "Serum Bile Acid, Mean", "setting": "Male beagle dogs [1]; 1.5 hr", "result": 9.6, "unit": "µg/mL"}, {"measurement": "Serum Bile Acid, Mean", "setting": "Male beagle dogs [1]; 2 hr", "result": 6.7, "unit": "µg/mL"}, {"measurement": "Serum Bile Acid, Mean", "setting": "Male beagle dogs [1]; 4 hr", "result": "5.1* μg/ml"}, {"measurement": "Serum Bile Acid, Mean", "setting": "Male beagle dogs [1]; 4.5 hr", "result": 6.4, "unit": "µg/mL"}, {"measurement": "Serum Bile Acid, Mean", "setting": "Male beagle dogs [1]; 5 hr", "result": 7.0, "unit": "µg/mL"}, {"measurement": "Serum Bile Acid, Mean", "setting": "Male beagle dogs [1]; 6 hr", "result": 7.0, "unit": "µg/mL"}, {"measurement": "Serum Bile Acid, Mean", "setting": "Male beagle dogs [1]; 7 hr", "result": 7.4, "unit": "µg/mL"}, {"measurement": "Serum Bile Acid, Mean", "setting": "Male beagle dogs [1]; 8 hr", "result": 6.5, "unit": "µg/mL"}, {"measurement": "Time LUM001 remains active", "setting": "Male beagle dogs [1]; previous experiments", "result": "more than 4.5 hours"}, {"measurement": "Fecal bile acids", "setting": "healthy, adult subjects", "result": "significant increase"}, {"measurement": "Serum bile acids", "setting": "healthy, adult subjects", "result": "significant reduction"}, {"measurement": "Time after dosing to significantly lowered SBA levels", "setting": "Male beagle dogs [2]; 0.05 mg/kg oral", "result": "1 to 2", "unit": "h"}, {"measurement": "Serum Bile Acid, Mean", "setting": "Male beagle dogs [2]; 1 mg/kg p.o., 0 min from feeding, fed at 0 min, dosed at 60 min", "result": 2.8, "unit": "µg/mL"}, {"measurement": "Decrease of fasting serum bile acid level versus placebo patients", "setting": "[3]", "result": 24, "unit": "%"}, {"measurement": "Decrease of post-prandial peak serum bile acid level versus placebo patients", "setting": "[3]", "result": 23, "unit": "%"}, {"measurement": "Systemic absorption (levels of systemic exposure measured on day eight)", "setting": "[4]; children, once-a-day in the morning for fourteen days", "result": "minimally absorbed"}, {"measurement": "concentration at 8 day", "setting": "[4]; Subject 0308, 1.0 mg, 28.9 μg/kg QD", "result": 0, "unit": "ng/mL"}, {"measurement": "concentration at 8 day", "setting": "[4]; Subject 0410, 2.5 mg, 42.0 μg/kg QD", "result": 0, "unit": "ng/mL"}, {"measurement": "concentration at 8 day", "setting": "[4]; Subject 0510, 5.0 mg, 168.4 μg/kg QD", "result": 0, "unit": "ng/mL"}, {"measurement": "Tolerability", "setting": "[5]", "result": "well-tolerated"}]}
{"compound": "CCCC[C@]1(CC)CS(=O)(=O)c2cc(OC)c(OC)cc2[C@@H](c2ccccc2)N1", "note": "[Compound 264W94]", "values": [{"measurement": "Fecal bile acid concentrations elevated compared to vehicle treated rats", "setting": "[6]; 0.001-10 mg/kg oral gavage twice a day, 24 h feces in second week", "result": "up to 6.5 fold"}, {"measurement": "ED50 for elevation of fecal bile acid concentrations", "setting": "[6]; oral gavage twice a day", "result": 0.17, "unit": "mg/kg"}, {"measurement": "Fecal NEFA", "setting": "[6]; oral gavage twice a day", "result": "slightly increased"}, {"measurement": "Plasma bile acid concentrations", "setting": "[6]; oral gavage twice a day", "result": "decreased dose-dependently"}]}
